Assay results published in US6403139B1, “Process for treating fruit and vegetables using tocopherols as antioxidants” (Xeda International, priority 1999, dated 2002).

System: Granny Smith apples
Experiment: Anti-scald treatment on apples, treating composition applied for 3 minutes by immersion or spraying, then 8 days storage at 20° C.
Protocol: The examples which follow illustrate the invention in further detail. In these examples, the treating composition, preheated to 50° C., is applied for 3 minutes to Granny Smith apples, by immersion or spraying. Treating composition (Composition A) consists of water and 1500 ppm of α-tocopherol. The treatment is carried out by applying the treating composition, brought to 50° C., to the apples for 3 minutes. The treated apples are then stored at ambient temperature (20° C.) for 8 days. The proportion of healthy apples, the proportion of apples for which less than 1 cm^2 of surface area is deteriorated by scald, and the proportion of apples for which more than 1 cm^2 of surface area is affected are then quantified. The apples are treated under the same conditions as in Example 1. By way of additional comparison, the same amount of apples was treated with composition D maintained at ambient temperature (i.e. between 20 and 22° C.). The apples thus treated were then stored for 8 days at ambient temperature (20° C.).

SMILES: Cc1c(C)c2c(c(C)c1O)CC[C@@](C)(CCC[C@H](C)CCC[C@H](C)CCCC(C)C)O2 [vitamin e, 5,7,8-trimethyltocol]
- antioxidant activity at ambient temperature: virtually zero
